Data from patent publication EP0565377B1, “Therapeutic agents for use in the treatment of Parkinson's Disease” (Kyowa Hakko Kogyo Co., Ltd., priority 1992, dated 1993).

How the values were obtained:
[1] = test system: Haloperidol-Induced Catalepsy; test: Effect on haloperidol-induced catalepsy; assay type: in vivo, male ddY mice; conditions: Table 4-1, test compound 10 mg/kg orally; for inhibition in vivo at 10 mg/kg: Mus musculus, po, 1 h, rate of decrease in total score based on control group, read-out: Remission Rate (%); for Number of the Animals Showing Remission: of 5 mice, catalepsy score not more than 4 points; for Total Score: total catalepsy score of 5 mice (25 points at the full), 0.3% CMC control 25
Procedure: The experiment was performed by using several groups of 5-weeks-old male ddY mice (weighing 22 to 24 g, Japan SLC), each group consisting of 5 mice. Haloperidol (Janssen Pharmaceutica) suspended in 0.3% CMC was intraperitoneally administered to each mouse at a dose of 1.0 mg/kg. Test compounds were suspended in 0.3% CMC or in injectable distilled water (Otsuka Pharmaceutical Co., Ltd.) containing Tween 80. L-DOPA (Kyowa Hakko Kogyo Co., Ltd.) and benserazide hydrochloride (Kyowa Hakko Kogyo Co., Ltd.) were suspended in 0.3% CMC. One hour after the haloperidol administration, the test compound suspensions and the control suspension [0.3% CMC or injectable distilled water (Otsuka Pharmaceutical Co., Ltd.) containing Tween 80] containing no test compound were orally administered to separate groups of the mice (0.1 ml per 10 g of body weight). One hour after the administration of the test compound, the forelimbs of each mouse and subsequently the hindlimbs of the same mouse were placed on a 4.5 cm-high, 1.0 cm-wide bar and catalepsy was estimated. All of the test compounds were orally administered at a dose of 10 mg/kg, and L-DOPA (100 mg/kg) and benserazide (25 mg/kg) were intraperitoneally administered together as a control experiment. The catalepsy score and the standard of judgment are shown below.
The effect of the compounds was evaluated by the total of the catalepsy scores of five mice in each group (25 points at the full). The groups wherein the total score was not more than 20 points were estimated to be effective. The number of the animals showing remission against catalepsy is the number of the mice for which the catalepsy score was not more than 4 points.

[2] = test system: Parkinson's Disease Model in Mouse; test: Effect on locomotor activity of Parkinson's disease model in mouse (MPTP-treated mice, Automex-II horizontal activity); assay type: in vivo, male C57BL/6 mice
Procedure: 1-Methyl-4-phenyl-1,2,3,6-tetrahydropyridine (MPTP) causes symptoms of Parkinson's disease in humans [Science, 219, 979 (1983)]. It is reported that an experimental Parkinson's disease model was obtained by administering MPTP to mice [Science, 224, 1451 (1984)]. If a compound is effective on the experimental Parkinson's disease model in mouse, the compound can be expected to have a therapeutic effect on Parkinson's disease.
The experiment was performed by using several groups of 7-weeks-old male C57BL/6 mice (weighing 20 to 21 g, Japan SLC), each group consisting of 8 mice. MPTP (Aldrich Chemical Co., Inc.) dissolved in a physiological saline solution (Otsuka Pharmaceutical Co., Ltd.) was intraperitoneally administered to each mouse once a day for five consecutive days at a dose of 30 mg/kg. A test compound was suspended in injectable distilled water (Otsuka Phamaceutical Co., Ltd.) containing Tween 80 [polyoxyethylene (20) sorbitan monooleate]. L-DOPA (Kyowa Hakko Kogyo Co., Ltd.) was suspended in 0.3% CMC (sodium carboxylmethylcellulose). Thirty minutes after the final MPTP administration, the test compound suspensions and the control suspension [injectable distilled water (Otsuka Pharmaceutical Co., Ltd.) containing Tween 80] containing no test compound were orally administered to separate groups of the mice (0.1 ml per 10 g of body weight). The amount of active movements (horizontal activity) of each mouse was measured by using Automex-II (Columbus Instruments International Corp.) for the period of 30 minutes starting 30 minutes after the administration of the test compound. The effect of the compounds was evaluated by comparing the average counts of the active movements of the test compound-administered groups with those of the control groups. A significant difference test was performed by using Student's t-test.

[3] = test system: dd-strain male mice; test: Acute toxicity test (minimum lethal dose, oral); assay type: in vivo; conditions: oral administration, mortality seven days after administration, three mice per group
Procedure: Test compounds were orally administered to groups of dd-strain male mice weighing 20±1 g, each group consisting of three mice. Seven days after the administration, minimum lethal dose (MLD) of each compound was determined by observing the mortality.

[4] = Table 3-1, test compound 10 mg/kg orally, 30 min count starting 30 min after dosing, normal control 1875 ± 77.7, MPTP control 207 ± 85.5
[5] = Table 3-5, test compound 40 mg/kg orally, normal control 2252 ±210.1, MPTP control 18 ± 8.4

| SMILES | inhibition in vivo at 10 mg/kg [1] [%] | Number of the Animals Showing Remission [1] | Total Score [1] [points] | Amount of Active Movements (average count ± S.E.M) [2, 4] [count] | MLD [3] [mg/kg] | Amount of Active Movements (average count ± S.E.M) ([2]; Table 3-2, test compound 40 mg/kg orally, normal control 2185 ±156.2, MPTP control 38 ± 24.2) [count] | Amount of Active Movements (average count ± S.E.M) [2, 5] [count] | Amount of Active Movements (average count ± S.E.M) ([2]; Table 3-2, test compound 10 mg/kg orally, normal control 2185 ±156.2, MPTP control 38 ± 24.2) [count] |
| --- | --- | --- | --- | --- | --- | --- | --- | --- |
| CCCn1c(=O)c2c(nc(/C=C/c3ccc(OC)c(OC)c3)n2C)n(CCC)c1=O [Compound 1, (E)-8-(3,4-dimethoxystyryl)-7-methyl-1,3-dipropylxanthine] | 48 | 5 | 13 | 628 ±174.5 | > 300 |  |  |  |
| CCCn1c(=O)c2c(nc(/C=C/c3ccccc3)n2C)n(CCC)c1=O [Compound 3, (E) -7-methyl-1,3-dipropyl-8-styrylxanthine] | 20 | 4 | 20 |  | > 300 | 228 ± 82.6 |  |  |
| CCCCn1c(=O)c2c(nc(/C=C/c3cc(OC)c(OC)c(OC)c3)n2C)n(CCCC)c1=O [Compound 8, (E)-1,3-dibutyl-7-methyl-8-(3,4,5-trimethoxystyryl)xanthine] |  |  |  |  | > 300 |  | 43 ± 28.3 |  |
| C=CCn1c(=O)c2nc(/C=C/c3cc(OC)c(OC)c(OC)c3)[nH]c2n(CC=C)c1=O [Compound 11, (E)-1,3-diallyl-8-(3,4,5-trimethoxystyryl) xanthine] | 20 | 3 | 20 |  | > 300 |  | 20 ± 7.1 |  |
| CCn1c(=O)c2c(nc(/C=C/c3cc(OC)c(OC)c(OC)c3)n2C)n(CC)c1=O [Compound 4, (E)-1,3-diethyl-7-methyl-8-(3,4,5-trimethoxystyryl)xanthine] | 20 | 4 | 20 |  | > 300 |  |  | 961 ±164.7 |
| COc1cc(/C=C/c2nc3c(c(=O)n(C)c(=O)n3C)n2C)cc(OC)c1OC [Compound 2, (E)-8-(3,4,5-trimethoxystyryl)caffeine] | 56 | 5 | 11 | 1134 ±267.0 | > 300 |  |  |  |
